These compounds were tested against WDR5 (Homo sapiens (Human), UniProt P61964) (assay: Surface Plasmon Resonance (SPR) assay, KD and residence time). Settings: surface plasmon resonance (SPR) assay; read-out: WDR5 binding affinity (KD).
Assay type: binding

In order of falling Kd:
1. C[C@@H]1CN(c2cc(F)c(-c3cnc(N4CCOCC4)nc3)cc2NC(=O)c2cc(F)cc(Cl)c2)C[C@H](C)N1C [Example 159, 3-chloro-5-fluoro-N-[4-fluoro-5-(2-morpholin-4-ylpyrimidin-5-yl)-2-[(3R,5S)-3,4,5-trimethylpiperazin-1-yl]phenyl]benzamide]  29 nM
2. C[C@@H]1CN(c2cc(F)c(-c3cnc(N4CCOCC4)nc3)cc2NC(=O)c2cc(F)cc(F)c2)C[C@H](C)N1C [Example 160, 3,5-difluoro-N-[4-fluoro-5-(2-morpholin-4-ylpyrimidin-5-yl)-2-[(3R,5S)-3,4,5-trimethylpiperazin-1-yl]phenyl]benzamide]  26.8 nM
3. COc1cc(C#N)c(C(=O)Nc2cc(-c3cnc(N4CCOCC4)nc3)c(F)cc2N2C[C@@H](C)N(C)[C@@H](C)C2)cn1 [Example 137, 4-cyano-N-[4-fluoro-5-(2-morpholin-4-ylpyrimidin-5-yl)-2-[(3R,5S)-3,4,5-trimethylpiperazin-1-yl]phenyl]-6-methoxypyridine-3-carboxamide]  19.7 nM
4. C[C@@H]1CN(c2cc(F)c(-c3cnc(N4CCOCC4)nc3)cc2NC(=O)c2cccc(Cl)c2F)C[C@H](C)N1C [Example 140, 3-chloro-2-fluoro-N-[4-fluoro-5-(2-morpholin-4-ylpyrimidin-5-yl)-2-[(3R,5S)-3,4,5-trimethylpiperazin-1-yl]phenyl]benzamide]  18.8 nM
5. C[C@@H]1CN(c2cc(F)c(-c3cnc(N4CCOCC4)nc3)cc2NC(=O)c2ccccc2C(F)(F)F)C[C@H](C)N1C [Example 141, N-[4-fluoro-5-(2-morpholin-4-ylpyrimidin-5-yl)-2-[(3R,5S)-3,4,5-trimethylpiperazin-1-yl]phenyl]-2-(trifluoromethyl)benzamide]  16.2 nM
6. CC(C)CN1CC=C(c2cc(NC(=O)c3c[nH]c(=O)cc3C(F)(F)F)c(N3C[C@@H](C)N(C)[C@@H](C)C3)cc2F)CC1 [Example 150, N-[4-fluoro-5-[1-(2-methylpropyl)-3,6-dihydro-2H-pyridin-4-yl]-2-[(3R,5S)-3,4,5-trimethylpiperazin-1-yl]phenyl]-6-oxo-4-(trifluoromethyl)-1H-pyridine-3-carboxamide]  9 nM
7. C[C@@H]1CN(c2cc(F)c(-c3cncc(OCC4CC4)c3)cc2NC(=O)c2c[nH]c(=O)cc2C(F)(F)F)C[C@H](C)N1C [Example 156, N-[5-[5-(cyclopropylmethoxy)pyridin-3-yl]-4-fluoro-2-[(3R,5S)-3,4,5-trimethylpiperazin-1-yl]phenyl]-6-oxo-4-(trifluoromethyl)-1H-pyridine-3-carboxamide]  8.61 nM
8. C[C@@H]1CN(c2cc(F)c(C3=CCN(CC4CC4)CC3)cc2NC(=O)c2c[nH]c(=O)cc2C(F)(F)F)C[C@H](C)N1C [Example 151, N-[5-[1-(cyclopropylmethyl)-3,6-dihydro-2H-pyridin-4-yl]-4-fluoro-2-[(3R,5S)-3,4,5-trimethylpiperazin-1-yl]phenyl]-6-oxo-4-(trifluoromethyl)-1H-pyridine-3-carboxamide]  7.46 nM
9. C[C@@H]1CN(c2cc(F)c(-c3ccc(OC(F)(F)F)cc3)cc2NC(=O)c2c[nH]c(=O)cc2C(F)(F)F)C[C@H](C)N1C [Example 145, N-[4-fluoro-2-[(3R,5S)-3,4,5-trimethylpiperazin-1-yl]-5-[4-(trifluoromethoxy)phenyl]phenyl]-6-oxo-4-(trifluoromethyl)-1H-pyridine-3-carboxamide]  6.83 nM
10. C[C@@H]1CN(c2cc(F)c(C3=CCN(CCC(F)(F)F)CC3)cc2NC(=O)c2c[nH]c(=O)cc2C(F)(F)F)C[C@H](C)N1C [Example 152, N-[4-fluoro-2-[(3R,5S)-3,4,5-trimethylpiperazin-1-yl]-5-[1-(3,3,3-trifluoropropyl)-3,6-dihydro-2H-pyridin-4-yl]phenyl]-6-oxo-4-(trifluoromethyl)-1H-pyridine-3-carboxamide]  6.33 nM
11. C[C@@H]1CN(c2cc(F)c(-c3ccc(C(F)(F)F)cc3)cc2NC(=O)c2c[nH]c(=O)cc2C(F)(F)F)C[C@H](C)N1C [Example 144, N-[4-fluoro-2-[(3R,5S)-3,4,5-trimethylpiperazin-1-yl]-5-[4-(trifluoromethyl)phenyl]phenyl]-6-oxo-4-(trifluoromethyl)-1H-pyridine-3-carboxamide]  6.06 nM
12. C[C@@H]1CN(c2cc(F)c(-c3ccccc3)cc2NC(=O)c2c[nH]c(=O)cc2C(F)(F)F)C[C@H](C)N1C [Example 146, N-[4-fluoro-5-phenyl-2-[(3R,5S)-3,4,5-trimethylpiperazin-1-yl]phenyl]-6-oxo-4-(trifluoromethyl)-1H-pyridine-3-carboxamide]  6.02 nM
13. C[C@@H]1CN(c2cc(F)c(-c3cnc(N4CCOCC4)nc3)cc2NC(=O)c2c(Cl)cccc2Cl)C[C@H](C)N1C [Example 139, 2,6-dichloro-N-[4-fluoro-5-(2-morpholin-4-ylpyrimidin-5-yl)-2-[(3R,5S)-3,4,5-trimethylpiperazin-1-yl]phenyl]benzamide]  5.86 nM
14. C[C@@H]1CN(c2cc(F)c(C3=CCN(Cc4cccnc4)CC3)cc2NC(=O)c2c[nH]c(=O)cc2C(F)(F)F)C[C@H](C)N1C [Example 154, N-[4-fluoro-5-[1-(pyridin-3-ylmethyl)-3,6-dihydro-2H-pyridin-4-yl]-2-[(3R,5S)-3,4,5-trimethylpiperazin-1-yl]phenyl]-6-oxo-4-(trifluoromethyl)-1H-pyridine-3-carboxamide]  5.46 nM
15. C[C@@H]1CN(c2cc(F)c(C3=CCN(Cc4ccsc4)CC3)cc2NC(=O)c2c[nH]c(=O)cc2C(F)(F)F)C[C@H](C)N1C [Example 155, N-[4-fluoro-2-[(3R,5S)-3,4,5-trimethylpiperazin-1-yl]-5-[1-(thiophen-3-ylmethyl)-3,6-dihydro-2H-pyridin-4-yl]phenyl]-6-oxo-4-(trifluoromethyl)-1H-pyridine-3-carboxamide]  4.76 nM
16. Cc1cc(-c2cc(NC(=O)c3c[nH]c(=O)cc3C(F)(F)F)c(N3C[C@@H](C)N(C)[C@@H](C)C3)cc2F)cnn1 [Example 149, N-[4-fluoro-5-(6-methylpyridazin-4-yl)-2-[(3R,5S)-3,4,5-trimethylpiperazin-1-yl]phenyl]-6-oxo-4-(trifluoromethyl)-1H-pyridine-3-carboxamide]  4.65 nM
17. C[C@@H]1CN(c2cc(F)c(-c3ccc(Cl)cc3)cc2NC(=O)c2c[nH]c(=O)cc2C(F)(F)F)C[C@H](C)N1C [Example 147, N-[5-(4-chlorophenyl)-4-fluoro-2-[(3R,5S)-3,4,5-trimethylpiperazin-1-yl]phenyl]-6-oxo-4-(trifluoromethyl)-1H-pyridine-3-carboxamide]  4.44 nM
18. Cc1ncc(CN2CC=C(c3cc(NC(=O)c4c[nH]c(=O)cc4C(F)(F)F)c(N4C[C@@H](C)N(C)[C@@H](C)C4)cc3F)CC2)o1 [Example 163, N-[4-fluoro-5-[1-[(2-methyl-1,3-oxazol-5-yl)methyl]-3,6-dihydro-2H-pyridin-4-yl]-2-[(3R,5S)-3,4,5-trimethylpiperazin-1-yl]phenyl]-6-oxo-4-(trifluoromethyl)-1H-pyridine-3-carboxamide]  4.05 nM
19. C[C@@H]1CN(c2cc(F)c(C3=CCN(Cc4nccs4)CC3)cc2NC(=O)c2c[nH]c(=O)cc2C(F)(F)F)C[C@H](C)N1C [Example 162, N-[4-fluoro-2-[(3R,5S)-3,4,5-trimethylpiperazin-1-yl]-5-[1-(1,3-thiazol-2-ylmethyl)-3,6-dihydro-2H-pyridin-4-yl]phenyl]-6-oxo-4-(trifluoromethyl)-1H-pyridine-3-carboxamide]  2.83 nM
20. C[C@@H]1CN(c2cc(F)c(-c3ccc(O)nc3)cc2NC(=O)c2c[nH]c(=O)cc2C(F)(F)F)C[C@H](C)N1C [Example 157, N-[4-fluoro-5-(6-hydroxypyridin-3-yl)-2-[(3R,5S)-3,4,5-trimethylpiperazin-1-yl]phenyl]-6-oxo-4-(trifluoromethyl)-1H-pyridine-3-carboxamide]  2.16 nM
21. C[C@@H]1CN(c2cc(F)c(C3=CCN(C(=O)OC(C)(C)C)CC3)cc2NC(=O)c2c[nH]c(=O)cc2C(F)(F)F)C[C@H](C)N1C [Example 143, tert-butyl 4-[2-fluoro-5-[[6-oxo-4-(trifluoromethyl)-1H-pyridine-3-carbonyl]amino]-4-[(3R,5S)-3,4,5-trimethylpiperazin-1-yl]phenyl]-3,6-dihydro-2H-pyridine-1-carboxylate]  1.24 nM
22. C[C@@H]1CN(c2cc(F)c(C3=CCN(Cc4ccc(F)cc4)CC3)cc2NC(=O)c2c[nH]c(=O)cc2C(F)(F)F)C[C@H](C)N1C [Example 153, N-[4-fluoro-5-[1-[(4-fluorophenyl)methyl]-3,6-dihydro-2H-pyridin-4-yl]-2-[(3R,5S)-3,4,5-trimethylpiperazin-1-yl]phenyl]-6-oxo-4-(trifluoromethyl)-1H-pyridine-3-carboxamide]  1.08 nM
23. C[C@@H]1CN(c2cc(F)c(-c3ccc(N(C)C)nc3)cc2NC(=O)c2c[nH]c(=O)cc2C(F)(F)F)C[C@H](C)N1C [Example 142, N-[5-[6-(dimethylamino)pyridin-3-yl]-4-fluoro-2-[(3R,5S)-3,4,5-trimethylpiperazin-1-yl]phenyl]-6-oxo-4-(trifluoromethyl)-1H-pyridine-3-carboxamide]  0.985 nM
24. COc1ccc(CN2CC=C(c3cc(NC(=O)c4c[nH]c(=O)cc4C(F)(F)F)c(N4C[C@@H](C)N(C)[C@@H](C)C4)cc3F)CC2)cc1 [Example 148, N-[4-fluoro-5-[1-[(4-methoxyphenyl)methyl]-3,6-dihydro-2H-pyridin-4-yl]-2-[(3R,5S)-3,4,5-trimethylpiperazin-1-yl]phenyl]-6-oxo-4-(trifluoromethyl)-1H-pyridine-3-carboxamide]  0.54 nM
25. C[C@@H]1CN(c2cc(F)c(-c3cnc(N4CCNCC4)nc3)cc2NC(=O)c2c[nH]c(=O)cc2C(F)(F)F)C[C@H](C)N1C [Example 158, N-[4-fluoro-5-(2-piperazin-1-ylpyrimidin-5-yl)-2-[(3R,5S)-3,4,5-trimethylpiperazin-1-yl]phenyl]-6-oxo-4-(trifluoromethyl)-1H-pyridine-3-carboxamide]  0.345 nM

Reference: patent publication US11319299B2, “Substituted carboxamides as inhibitors of WDR5 protein-protein binding” (PROPELLON THERAPEUTICS INC., priority 2016, dated 2022)
